From patent US20230312529A1, “PYRIMIDINE SMALL-MOLECULE COMPOUND AND APPLICATION THEREOF” (WENZHOU MEDICAL UNIVERSITY, priority 2021, published 2023)
Where two headings read alike, the source gives them in different places.

Legend:
[1] = test system: human normal retinal cells ARPE-19; assay: MTT assay on human retinal cells; format: cell-based
[2] = test system: PDGFR signaling pathway related proteins in MNNG cells; assay: Western Blot of PDGFR signaling pathway protein phosphorylation; format: cell-based; conditions: 0.1, 0.2 and 0.4 uM, 48 hours
Procedure: (§1) After pretreating the osteosarcoma cell line with the compound for 48 hours, the culture medium was sucked off, washed with PBS for 3 times, and the total protein was extracted after lysis. A phosphorylation level of the PDGFR signaling pathway related proteins was detected by Western Blot.

[3] = test system: PDGFR signaling pathway related proteins in MG63 cells; assay: as above; format: cell-based; conditions: 0.1, 0.2 and 0.4 uM, 48 hours
Procedure: as §1

IKK β = IKK β (Homo sapiens (Human), UniProt O14920); assay: Caliper Mobility Shift kinase inhibition test; format: biochemical
IKK β, sequence (O14920 whole entry, species assumed): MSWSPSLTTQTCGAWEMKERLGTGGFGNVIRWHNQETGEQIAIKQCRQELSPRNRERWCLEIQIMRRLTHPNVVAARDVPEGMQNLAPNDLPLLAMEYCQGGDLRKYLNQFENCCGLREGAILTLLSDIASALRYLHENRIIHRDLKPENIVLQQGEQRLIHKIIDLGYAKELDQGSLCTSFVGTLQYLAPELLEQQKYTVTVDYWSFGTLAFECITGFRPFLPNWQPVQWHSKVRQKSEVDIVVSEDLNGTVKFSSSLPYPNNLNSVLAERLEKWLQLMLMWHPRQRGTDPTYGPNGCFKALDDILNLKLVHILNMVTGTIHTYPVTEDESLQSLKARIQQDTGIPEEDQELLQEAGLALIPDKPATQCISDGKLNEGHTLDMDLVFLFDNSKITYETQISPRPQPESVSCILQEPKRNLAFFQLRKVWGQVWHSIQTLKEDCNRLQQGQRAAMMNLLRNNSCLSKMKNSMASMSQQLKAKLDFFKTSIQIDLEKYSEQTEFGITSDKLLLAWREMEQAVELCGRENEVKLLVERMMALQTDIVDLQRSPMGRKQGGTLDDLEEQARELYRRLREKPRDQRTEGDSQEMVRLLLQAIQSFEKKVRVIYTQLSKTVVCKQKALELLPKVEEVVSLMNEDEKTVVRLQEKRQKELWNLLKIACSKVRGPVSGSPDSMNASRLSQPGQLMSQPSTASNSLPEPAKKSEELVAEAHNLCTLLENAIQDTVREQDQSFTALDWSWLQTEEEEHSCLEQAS
Procedure: (§2) The method adopted in the test was Caliper Mobility Shift Assay, which was a detection platform based on the mobility detection technology of microfluidic chip technology. Test steps: 1.25× kinase reaction buffer (62.5 mmol/L HEPES, pH 7.5; 0.001875% Brij-35; 12.5 mmol/L MgCl2; 2.5 mM DTT) and kinase reaction stop solution (100 mmol/L HEPES, pH 7.5; 0.015% Brij-35; 0.2% Coating Reagent #3) were configured. […] Collected data was tested on Caliper to yield that inhibition ratio to kinase activity=(max−conversion)/(max−min)×100. “max” was DMSO control without adding compound, and “min” was low control. When IC50 was determined, each sample was provided with 10 dilutions, each with 2 multiple holes, and repeated for 3 times.

FLT3 = FLT3 (Homo sapiens (Human), UniProt P36888); assay: Caliper Mobility Shift kinase inhibition test; format: biochemical; conditions: 100 nM; read-out: inhibitory rate on FLT3
FLT3, sequence (P36888 27-993): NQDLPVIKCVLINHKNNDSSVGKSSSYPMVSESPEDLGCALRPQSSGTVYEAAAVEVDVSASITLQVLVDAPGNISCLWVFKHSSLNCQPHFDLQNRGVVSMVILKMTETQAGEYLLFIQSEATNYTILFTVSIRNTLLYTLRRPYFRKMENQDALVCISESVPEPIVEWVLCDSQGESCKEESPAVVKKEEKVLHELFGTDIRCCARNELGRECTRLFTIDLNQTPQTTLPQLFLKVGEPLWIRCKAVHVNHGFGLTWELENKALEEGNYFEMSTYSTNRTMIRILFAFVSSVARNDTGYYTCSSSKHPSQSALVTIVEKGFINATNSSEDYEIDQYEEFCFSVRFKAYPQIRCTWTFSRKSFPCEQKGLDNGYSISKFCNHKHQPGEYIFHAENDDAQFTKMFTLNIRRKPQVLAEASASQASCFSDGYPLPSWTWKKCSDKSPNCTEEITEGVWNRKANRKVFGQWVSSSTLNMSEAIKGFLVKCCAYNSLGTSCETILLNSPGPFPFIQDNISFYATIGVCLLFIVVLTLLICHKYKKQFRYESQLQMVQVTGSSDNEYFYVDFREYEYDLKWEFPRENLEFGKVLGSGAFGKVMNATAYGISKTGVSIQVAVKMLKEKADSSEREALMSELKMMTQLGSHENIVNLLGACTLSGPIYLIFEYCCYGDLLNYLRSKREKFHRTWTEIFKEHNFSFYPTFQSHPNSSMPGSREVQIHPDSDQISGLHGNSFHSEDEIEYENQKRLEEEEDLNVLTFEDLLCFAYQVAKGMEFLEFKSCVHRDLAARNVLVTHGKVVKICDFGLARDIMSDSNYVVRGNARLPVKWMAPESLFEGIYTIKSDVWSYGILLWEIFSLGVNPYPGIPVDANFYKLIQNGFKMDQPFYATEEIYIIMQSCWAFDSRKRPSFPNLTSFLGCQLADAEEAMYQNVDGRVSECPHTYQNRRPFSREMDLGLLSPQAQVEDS
Procedure: as §2

ALK = ALK (Homo sapiens (Human), UniProt Q9UM73); assay: Caliper Mobility Shift kinase inhibition test; format: biochemical
ALK, sequence (Q9UM73 19-1620, species assumed): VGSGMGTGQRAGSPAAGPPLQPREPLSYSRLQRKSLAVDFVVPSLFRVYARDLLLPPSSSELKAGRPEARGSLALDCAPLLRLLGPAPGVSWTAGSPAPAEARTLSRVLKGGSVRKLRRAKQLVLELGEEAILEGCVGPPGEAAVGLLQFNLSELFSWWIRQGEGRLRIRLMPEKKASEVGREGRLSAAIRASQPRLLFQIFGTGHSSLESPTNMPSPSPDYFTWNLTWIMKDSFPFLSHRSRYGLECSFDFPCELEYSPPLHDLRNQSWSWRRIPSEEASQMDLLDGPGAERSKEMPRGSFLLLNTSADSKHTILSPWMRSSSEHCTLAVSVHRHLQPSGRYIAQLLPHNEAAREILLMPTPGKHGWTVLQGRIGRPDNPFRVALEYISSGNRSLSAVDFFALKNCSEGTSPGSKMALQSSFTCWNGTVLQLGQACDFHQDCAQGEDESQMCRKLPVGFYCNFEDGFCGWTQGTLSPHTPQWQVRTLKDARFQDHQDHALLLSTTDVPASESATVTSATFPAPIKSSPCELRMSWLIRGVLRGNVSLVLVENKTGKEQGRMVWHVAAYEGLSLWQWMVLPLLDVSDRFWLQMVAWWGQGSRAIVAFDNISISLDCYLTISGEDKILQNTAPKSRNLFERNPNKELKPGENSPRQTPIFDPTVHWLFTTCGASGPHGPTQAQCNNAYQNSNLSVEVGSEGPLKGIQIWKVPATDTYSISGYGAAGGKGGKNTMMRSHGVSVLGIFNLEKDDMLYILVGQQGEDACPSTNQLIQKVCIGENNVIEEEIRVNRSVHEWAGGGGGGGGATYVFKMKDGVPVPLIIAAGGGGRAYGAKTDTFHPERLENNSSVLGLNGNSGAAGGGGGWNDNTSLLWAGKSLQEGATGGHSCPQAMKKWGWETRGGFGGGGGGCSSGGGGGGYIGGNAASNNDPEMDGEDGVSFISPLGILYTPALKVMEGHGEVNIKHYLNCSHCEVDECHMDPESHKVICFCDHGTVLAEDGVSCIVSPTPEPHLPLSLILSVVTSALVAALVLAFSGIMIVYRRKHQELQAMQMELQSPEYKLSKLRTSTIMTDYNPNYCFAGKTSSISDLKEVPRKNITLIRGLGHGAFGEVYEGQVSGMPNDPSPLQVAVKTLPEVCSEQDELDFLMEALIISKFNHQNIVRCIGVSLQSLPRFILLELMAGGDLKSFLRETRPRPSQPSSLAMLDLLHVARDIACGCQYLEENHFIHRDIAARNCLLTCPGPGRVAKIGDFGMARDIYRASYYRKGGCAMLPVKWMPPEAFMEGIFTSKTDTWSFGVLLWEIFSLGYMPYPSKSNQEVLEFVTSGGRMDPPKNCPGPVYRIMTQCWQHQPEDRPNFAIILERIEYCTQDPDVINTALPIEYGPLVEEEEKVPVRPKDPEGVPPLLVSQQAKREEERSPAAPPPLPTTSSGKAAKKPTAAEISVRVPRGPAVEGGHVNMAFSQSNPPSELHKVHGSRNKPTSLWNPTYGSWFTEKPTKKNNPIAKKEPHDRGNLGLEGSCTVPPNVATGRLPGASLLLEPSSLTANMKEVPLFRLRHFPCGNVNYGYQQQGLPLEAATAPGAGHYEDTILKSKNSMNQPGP
Procedure: as §2

PDGFRβ = PDGFRβ (Homo sapiens (Human), UniProt P09619); assay: Caliper Mobility Shift kinase inhibition test; format: biochemical; conditions: for inhibition at 0.1 µM: 100 nM
PDGFRβ, sequence (P09619 33-1106): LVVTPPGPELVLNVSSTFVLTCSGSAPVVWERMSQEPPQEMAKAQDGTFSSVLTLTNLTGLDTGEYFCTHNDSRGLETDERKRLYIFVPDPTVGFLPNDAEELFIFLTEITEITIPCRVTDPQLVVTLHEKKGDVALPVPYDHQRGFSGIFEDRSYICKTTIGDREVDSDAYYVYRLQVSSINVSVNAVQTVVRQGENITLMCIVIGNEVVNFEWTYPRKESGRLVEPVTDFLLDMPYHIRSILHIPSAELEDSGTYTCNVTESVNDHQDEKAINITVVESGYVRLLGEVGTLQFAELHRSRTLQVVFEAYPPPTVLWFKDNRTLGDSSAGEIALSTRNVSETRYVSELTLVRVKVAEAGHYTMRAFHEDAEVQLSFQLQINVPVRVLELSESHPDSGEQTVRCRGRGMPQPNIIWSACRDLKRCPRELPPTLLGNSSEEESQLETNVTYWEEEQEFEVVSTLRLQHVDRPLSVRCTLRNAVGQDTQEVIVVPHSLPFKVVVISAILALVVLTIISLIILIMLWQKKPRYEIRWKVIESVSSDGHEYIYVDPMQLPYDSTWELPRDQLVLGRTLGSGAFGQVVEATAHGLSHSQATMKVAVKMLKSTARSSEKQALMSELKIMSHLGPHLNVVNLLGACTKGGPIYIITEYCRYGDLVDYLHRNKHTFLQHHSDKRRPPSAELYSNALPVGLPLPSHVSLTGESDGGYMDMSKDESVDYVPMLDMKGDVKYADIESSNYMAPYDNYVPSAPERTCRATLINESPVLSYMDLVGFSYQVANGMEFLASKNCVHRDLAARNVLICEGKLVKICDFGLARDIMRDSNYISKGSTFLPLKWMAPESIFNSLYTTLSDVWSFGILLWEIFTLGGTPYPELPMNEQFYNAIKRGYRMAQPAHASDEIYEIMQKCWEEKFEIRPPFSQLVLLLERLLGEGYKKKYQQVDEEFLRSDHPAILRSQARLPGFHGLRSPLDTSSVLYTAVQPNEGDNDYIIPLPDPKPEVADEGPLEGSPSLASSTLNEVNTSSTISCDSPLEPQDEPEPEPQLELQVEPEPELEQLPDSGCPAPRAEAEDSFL
Procedure, shortened: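 Caliper microfluidic mobility-shift kinase assay in HEPES pH 7.5 buffer with MgCl2, DTT and Brij-35; % inhibition = (max−conversion)/(max−min)×100, max being DMSO control, min low control. IC50 from 10 dilutions, duplicate wells, repeated 3 times.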

osteosarcoma cells MNNG = assay: Adhesion test of osteosarcoma cells on fibronectin; format: cell-based; conditions: 0.1, 0.2 and 0.4 uM, 48 hours, compared with positive drugs
Procedure: (§3) Each well was dried, and added with 100 μL of 33% glacial acetic acid and the crystal violet was dissolved by shaking for 10 minutes. The absorbance was measured by a microplate reader at […], and the adhesion rate (%)=(OD value of tumor cells in the drug-added treated group−Hu FN OD value)/(OD value of untreated tumor cells−Hu FN OD value)×100%.

osteosarcoma cells MG63 = assay: Adhesion test of osteosarcoma cells on fibronectin; format: cell-based; conditions: 0.1, 0.2 and 0.4 uM, 48 hours, compared with positive drugs
Procedure: as §3

MG-63 osteosarcoma cells = assay: MTT assay on osteosarcoma cells; format: cell-based; conditions: Homo sapiens, 48 hours, read-out: Inhibitory activity (IC50) MG-63
Procedure: (§4) Logarithmic osteosarcoma cells were inoculated into a 96-well plate with a cell concentration of 1,500 cell/well for 6 hours by using MTT assay, and each well was filled with 200 μL of cell suspension. […] The samples were cultured in an incubator for 48 hours (37° C., 5% CO2), and 20 v L of MTT (3-(4,5-dimethylthiazole-2)-2,5-diphenyltetrazole) were added into each hole. After continuous culture for 4 hours, the culture solution was discarded by suction, and 200 v L of DMSO were added to each well. […] Calculation method of IC50 value: the IC50 values of the samples were calculated by curve fitting with GraphPad Prism software.

[4] = test system: SAOS-2 osteosarcoma cells; assay: MTT assay on osteosarcoma cells; format: cell-based; conditions: Homo sapiens, 48 hours, read-out: Inhibitory activity (IC50) SAOS-2
Procedure: as §4

[5] = test system: MNNG/HOS osteosarcoma cells; assay: MTT assay on osteosarcoma cells; format: cell-based; conditions: 48 hours, read-out: Inhibitory activity (IC50) MNNG/HOS
Procedure: as §4

U2OS osteosarcoma cells = assay: MTT assay on osteosarcoma cells; format: cell-based; conditions: Homo sapiens, 48 hours, read-out: Inhibitory activity (IC50) U2OS
Procedure: as §4

CCN1CCN(c2ccc(Nc3ncc(C)c(Nc4ccc5cn[nH]c5c4)n3)cc2OC)CC1 [Compound 6i, N^2-(4-(4-ethylpiperazine-1-yl)-3-methoxyphenyl)-N^4-(1H-indazol-6-yl)-5-methylpyrimidine-2,4-diamine]
IC50 ([1]; Homo sapiens, ARPE-19, MTT, read-out: Inhibitory activity (IC50) ARPE-19): 17500 ± 370 nM | inhibitory activity on ARPE-19 (in words) ([1]; at low concentration): almost no inhibitory activity | inhibition of phosphorylation of signaling pathway proteins [2]: strong dose-dependent inhibition | inhibition of phosphorylation of signaling pathway proteins [3]: strong dose-dependent inhibition | IC50 (IKK β): 694 nM | inhibition at 0.1 µM (FLT3): 98.9% | IC50 (ALK): 5 nM | inhibitory activity on PDGFRβ (in words) (PDGFRβ): significant inhibitory activities | inhibition at 0.1 µM (PDGFRβ; average, read-out: Average % inhibition PDGFR β): > 100% | inhibition at 0.1 µM (PDGFRβ; replicate 1, read-out: % inhibition 1 PDGFR β): 101% | inhibition at 0.1 µM (PDGFRβ; replicate 2, read-out: % inhibition 2 PDGFR β): 103% | inhibition at 0.1 µM (PDGFRβ; read-out: inhibitory rate on PDGFR-β): 99.8% | IC50 (PDGFRβ; read-out: IC50 PDGFR-β): 1.7 nM | inhibitory activity on adhesion (osteosarcoma cells MNNG): strong dose-dependent inhibitory activity | inhibitory activity on adhesion (osteosarcoma cells MG63): strong dose-dependent inhibitory activity | IC50 (MG-63 osteosarcoma cells): 438 ± 1 nM | IC50 [4]: 370 ± 2 nM | IC50 [5]: 1030 ± 80 nM | IC50 (U2OS osteosarcoma cells): 418 ± 17 nM
